Drawing on article PMC8875894, “Dabigatran Acylglucuronide, the Major Metabolite of Dabigatran, Shows a Weaker Anticoagulant Effect than Dabigatran” (Pharmaceutics, 2022), this text covers IC50 for one compound.

This experiment addresses T1, thrombin (Homo sapiens, UniProt P00734).
T1 construct: gene F2
Kind of experiment: thrombin generation assay in human plasma (fluorogenic Z-Gly-Gly-Arg-AMC, AUC); thrombin time prolonged.

For the compound `Cn1c(CNc2ccc(C(=N)N)cc2)nc2cc(C(=O)N(CCC(=O)O[C@@H]3O[C@H](C(=O)O)[C@@H](O)[C@H](O)[C@H]3O)c3ccccn3)ccc21` [DABG, dabigatran acylglucuronide], half-maximal inhibition (IC50) was put at 0.435 µM.

As usually defined, the IC50 is the concentration that inhibits the measured activity by half. Higher therefore signals weaker potency.
